Results on four molecules are retold here after patent publication US6369114B1, “Administration of an α2-adrenergic receptor agonist to enhance cardiopulmonary resuscitation” (Institute of Critical Care Medicine, priority 1999, dated 2002).

Series [1] has as its system post-resuscitation myocardial dysfunction, ventricular arrhythmias and survival. In words: Ventricular fibrillation cardiac arrest with precordial compression and defibrillation in rats (Example 1). It is filed as in vivo, Sprague-Dawley rats. The following applies: for duration of post-resuscitation survival: VF untreated 8 min, drug after 2 min precordial compression, α-methylnorepinephrine 100 μg/kg, epinephrine 30 μg/kg, FIG. 4; for resuscitation outcome: defibrillation attempted 4 min after drug. As for the experimental part:
Sprague-Dawley rats (450-570 g) were fasted overnight except for free access to water. The animals were anesthetized by intraperitoneal injection of 45 mg/kg pentobarbital sodium supplemented with additional doses of 10 mg/kg at hourly intervals, except that no pentobarbital was administered for 30 minutes before induction of cardiac arrest. The trachea was orally intubated with a 14-gauge cannula (Quick-Cath, Vicra division, Travenol Laboratory) mounted on a blunt needle with a 145° angled tip. For measurement of the partial pressure of carbon dioxide in the endotracheum (PETCO2), the respiratory gas was sampled through a side manifold interposed between the tracheal cannula and the respirator. The PCO2 was measured with a side-stream infrared CO2 analyzer (model 200, Instrumentation Laboratories). For measurement of left ventricular pressure, and both dP/dt40 (the rate of left ventricular pressure increase measured at a left ventricular pressure of 40 mm Hg, an indicator of isovolemic contractility) and negative dP/dt (the rate of left ventricular pressure decline, a measure of myocardial relaxation), a Teflon catheter (UTX 022; internal diameter, 0.6 mm; outer diameter, 0.97 mm; length 8 cm; Becton Dickinson) was advanced into the left ventricle from the right carotid artery. […] Guided by pressure monitoring, the catheter was slowly withdrawn into the right atrium. Right atrial pressure was measured with reference to the midchest with a high-sensitivity transducer (P-23-9b, Spectramed). This catheter was also used to sample blood from the right atrium. Through the right external jugular vein, a 3F pediatric radial artery catheter (model C-PUM-301J, Cook) was advanced into the right atrium. A precurved guide wire supplied with the catheter was then advanced through the catheter into the right ventricle until an endocardial ECG was observed. Through the right femoral artery, a Teflon catheter (UTX 022, Becton Dickinson) was advanced into the thoracic aorta for measurement of aortic pressure with a model TNF-R transducer (Abbott Critical Care). […] Rectal temperature was measured continuously with a rectal thermistor. Conventional lead II ECGs were recorded with skin electrodes (model E220, In-vivo Metric).
Ventricular fibrillation (VF) was induced and untreated for 8 minutes. Precordial compression (PC) was then initiated. After 2 minutes of precordial compression, animals were randomized to receive either the selective α2-adrenergic agent, α-methylnorepinephrine (100 μg/kg; catalog number M133, Research Biochemicals International; abbreviated “α-methylnorepi.”), epinephrine (30 μg/kg; abbreviated “epi.”) or saline placebo. Defibrillation (DF) was attempted 4 min. later. […] Baseline (BL) or control values are shown at the left of the figures.

Series [2] deals with post-resuscitation left ventricular function and ventricular arrhythmias. Description: Ventricular fibrillation cardiac arrest with precordial compression and defibrillation in pigs (Example 2). In kind it is in vivo, Male domestic pigs. The conditions noted are these: for resuscitation outcome: defibrillation attempted 4 min after drug. As for the experimental part: Male domestic pigs weighing between 40 and 45 kg were fasted overnight except for free access to water. Anesthesia was initiated by intramuscular injection of ketamine (20 mg/kg) and completed by ear vein injection of sodium pentobarbital (30 mg/kg). Additional doses of sodium pentobarbital (8 mg/kg) were injected at intervals of 1 h to maintain anesthesia. A cuffed endotracheal tube was advanced into the trachea. Animals were mechanically ventilated with a volume-controlled ventilator (Model MA-1; Puritan-Bennett, Carlsbad, Calif.). End tidal PCO2 (PETCO2) was monitored with an infrared analyzer (Model 01R-7101A; Nihon Kohden Corp., Tokyo, Japan). Respiratory frequency was adjusted to maintain PETCO2 between 35 and 40 mm Hg.
For the measurement of left ventricular function, a 5-MHZ single plane with 5 MHZ continuous-wave Doppler transesophageal echocardiographic transducer with four-way flexure (Model 21363A; Hewlett-Packard Co., Medical Products Group, Andover Mass.) was advanced from the incisor teeth into the esophagus for a distance of approximately 35 cm. For the measurement of aortic pressure, a fluid-filled catheter was advanced from the left femoral artery into the thoracic aorta. For the measurement of right atrial pressure, pulmonary arterial pressures and blood temperature, a 7-F, pentalumen, thermodilation-tip catheter was advanced from the left femoral vein and flow directed into the pulmonary artery. For inducing ventricular fibrillation (VF), a 5-F pacing catheter (EP Technologies, Inc., Mountain View, Calif.) was advanced from the right cephalic vein into the right ventricle until an electrocardiographic current of injury was recorded.
Ventricular fibrillation (VF) was induced and untreated for 7 minutes. Precordial compression (PC) was then initiated. After 2 minutes of precordial compression, animals were randomized to receive either the selective α2-adrenergic agent, α-methylnorepinephrine (100 μg/kg; catalog number M133, Research Biochemicals International) or epinephrine (30 μg/kg). Defibrillation was attempted 4 min. later. […] A lower incidence of post-resuscitation ventricular arrhythmias was again observed with those animals receiving α-methylnorepinephrine.

For series [3] the following is noted: immediately following administration, under spontaneous circulation and during CPR; cited from earlier work.
The conditions of series [4]: compared with epinephrine; cited from earlier work.

Consider `CNC[C@H](O)c1ccc(O)c(O)c1` [epinephrine], for which the “duration of post-resuscitation survival” value in series [1] worked out at 19 h. Further, the resuscitation outcome in series [1] and in series [2] was “successfully resuscitated” throughout. The “decrease of end tidal CO2 (ETCO2)” value in series [3] is given as 50%.

Turning to `COc1ccc(OC)c(C(O)C(C)N)c1` (centres unmarked) [methoxamine], the “effectiveness for restoring spontaneous circulation” value in series [4] is listed as “as effective as epinephrine”.

`CNC[C@H](O)c1cccc(O)c1` [phenylephrine]: the “effectiveness for restoring spontaneous circulation” value in series [4] is given as “as effective as epinephrine”.

For the molecule `CC(N)[C@H](O)c1ccc(O)c(O)c1` (stereo partly drawn) [α-methylnorepinephrine, α-(1-aminoethyl),3,4-dihydroxybenzyl alcohol], the “post-resuscitation myocardial dysfunction as measured by dp/dt40” value in series [1] (100 μg/kg, vs epinephrine or saline placebo, FIG. 1) was “significantly less severe”. The “post-resuscitation myocardial dysfunction as measured by negative dP/dt” value in series [1] (100 μg/kg, vs epinephrine or saline placebo, FIG. 2) is recorded as “significantly less severe”. For the same molecule, the “post-resuscitation myocardial dysfunction as measured by cardiac index (CI)” value in series [1] (100 μg/kg, vs epinephrine or saline placebo, FIG. 3) is given as “significantly less severe”. Besides, the “duration of post-resuscitation survival” value in series [1] is 72 h. Also, the resuscitation outcome in series [1] and in series [2] was “successfully resuscitated” throughout. The “incidence of post-resuscitation ventricular arrhythmias” value in series [1] (α-methylnorepinephrine 100 μg/kg vs epinephrine 30 μg/kg or saline placebo) is “significantly lower”; in series [2] (VF untreated 7 min, α-methylnorepinephrine 100 μg/kg vs epinephrine 30 μg/kg) it was “lower”. Besides, the “post-resuscitation left ventricular stroke volume” value in series [2] (100 μg/kg vs epinephrine 30 μg/kg, transesophageal echo-Doppler, FIG. 5) is on record as “markedly improved”. In addition, the post-resuscitation ejection fraction entry in series [2] (100 μg/kg vs epinephrine 30 μg/kg, transesophageal echo-Doppler, FIG. 6) was “markedly improved”. Besides, the post-resuscitation cardiac output entry in series [2] (100 μg/kg vs epinephrine 30 μg/kg, transesophageal echo-Doppler, FIG. 7) is listed as “markedly improved”.
